# Article PMC6441019, “Prospective discovery of small molecule enhancers of an E3 ligase-substrate interaction” (Nature Communications, 2019)
# Columns and labels:
# [1] = molecular target: T1, full-length S33E/S37A β-catenin protein ubiquitylation by SCFβ-TrCP (Homo sapiens, UniProt P35222+Q9Y297, S33E/S37A); assay: In vitro ubiquitylation of full-length S33E/S37A β-catenin protein; assay type: biochemical
# T1 construct: 6xHis-SMT3 (N, cleaved yes); host or cells: HEK293T (β-catenin); E. coli (β-TrCP1/Skp1); E. coli or SF9 (Cul1-Rbx1)
# Description: (§1) Four micromolar of fluorescently-labeled β-catenin peptide (residues 17–60) were ubiquitylated in a buffer containing 25 mM Tris Cl (pH 7.5), 50 mM NaCl, 5 mM MgCl2, 2 mM ATP, and 1 mM DTT at room temperature in the presence of 62.5 μM Ubiquitin, 125 nM Ube1, 1.75 μM Cdc34A, and 100 nM neddylated SCF^β-TrCP in the presence or absence of compound (as indicated). Typically, individual reaction mixes with either Ubiquitin, Ube1 and Cdc34A or β-catenin, SCF^β-TrCP and compound were preincubated and subsequently mixed to initiate β-catenin ubiquitylation. Reactions were quenched by SDS loading buffer, resolved by SDS-PAGE and imaged for fluorescence. For full length β-catenin protein ubiquitylation 400 nM β-catenin and 400 nM SCF^β-TrCP were used instead.
# [2] = molecular target: T2, S33E/S37A β-catenin:β-TrCP interaction (Homo sapiens, UniProt P35222+Q9Y297, S33E/S37A); assay: Pull down from HEK293T cells treated with compound; assay type: cell-based; conditions: 50 μM, 6 h
# T2 construct: a ternary complex with the full-length S33E/S37A β-catenin and β-TrCP in cells; evaluated for their ability to pull down endogenous β-TrCP; expressed in transfected cells; host or cells: HEK293T (transient, FuGeneHD); β-TrCP endogenous
# Description: Pull down from cells treated with compound: HEK293T cells were plated in 10 cm dishes at a density of 1.2 × 10^6 cells per plate. Cells were transfected 24 h later with 2.5 µg of a WT or S33E/S37A Myc/FLAG-tagged β-catenin expression construct using the transfection reagent FuGeneHD. […] Cells were then liberated from 10 cm dishes using a cell scraper, pelleted, washed with PBS, resuspended in an equal volume of hypotonic lysis buffer (20 mM HEPES 7.5, 5 mM KCl, 1.5 mM MgCl2, 2 mM DTT, 0.01% TX-100, protease and phosphatase inhibitors, 1% DMSO), and sheered by eight passages through 21 G and 25 G needles. Samples were then supplemented up to 150 mM NaCl and clarified by centrifugation. Thirty microliters of each lysate was incubated over 10 µL of anti-c-myc magnetic beads (Pierce, Catalog #PI88842) and incubated at room temp with rotation for 30 min. Beads were pelleted, washed twice with lysis buffer, and resuspended in SDS loading buffer. Samples were analyzed by western blot.
# [3] = molecular target: T3, S33E/S37A β-catenin peptide binding to β-TrCP (Homo sapiens, UniProt P35222+Q9Y297, S33E/S37A); assay: TR-FRET peptide binding assay, S33E/S37A peptide; conditions: read-out: binding affinity of S33E/S37A peptide
# T3 construct: titrating BODIPY-FL-labeled β-catenin peptides (residues 17-48) against 300 pM β-TrCP; 6xHis-SMT3 (N, cleaved yes); made in house; host or cells: E. coli (co-expressed with BirA)
# Description: (§2) Compounds were incubated in a 20 μl reaction volume with 300 pM biotinylated β-TrCP/Skp1 preincubated with 1.2 nM terbium-coupled streptavidin (Cisbio) and BODIPY-FL labeled β-catenin peptides (see figure legends for peptide details) in a white 384-well microplate (Perkin Elmer ProxiPlate), using a PBS buffer containing 0.01% Triton X-100 and 2 mM DTT with 2% final DMSO. […] Following 1-h incubation, plates were read for TR-FRET signal after excitation at 320 nm and read at 520 and 620 nm using an EnVision plate reader (Perkin Elmer). TR-FRET signal was calculated using a 520/620 nm ratio. Binding and enhancement data were fit to a standard Hill equation (Y = Bmin + (Bmax − Bmin)(X^h)/(X^h + EC50^h)) in Prism (GraphPad). Errors are standard error of the fit.
# [4] = molecular target: T4, Ser33/S37A β-catenin peptide ubiquitylation by SCFβ-TrCP (Homo sapiens, UniProt P35222+Q9Y297, S37A); assay: In vitro ubiquitylation of Ser33/S37A β-catenin peptide; assay type: biochemical
# T4 construct: Ubiquitylation of Ser33/S37A β-catenin peptide (residues 17–60) by SCF^β-TrCP; 6xHis-SMT3 (N, cleaved yes); made in house; host or cells: E. coli (β-TrCP1/Skp1); E. coli or SF9 (Cul1-Rbx1)
# Description: as §1
# [5] = molecular target: T5, pSer33/S37A β-catenin peptide binding to β-TrCP (Homo sapiens, UniProt P35222+Q9Y297, S37A); assay: TR-FRET peptide binding and cooperativity assay, pSer33/S37A peptide
# T5 construct: titrating BODIPY-FL-labeled β-catenin peptides (residues 17-48) against 300 pM β-TrCP; 6xHis-SMT3 (N, cleaved yes); made in house; host or cells: E. coli (co-expressed with BirA)
# Description: as §2
# [6] = molecular target: T6, pSer33/S37A β-catenin peptide ubiquitylation by SCFβ-TrCP (Homo sapiens, UniProt P35222+Q9Y297, S37A); assay: In vitro ubiquitylation of pSer33/S37A β-catenin peptide; assay type: biochemical; conditions: forms long ubiquitin chains
# T6 construct: fluorescently-labeled β-catenin peptide (residues 17–60; as indicated) was ubiquitylated; 6xHis-SMT3 (N, cleaved yes); made in house; host or cells: E. coli (β-TrCP1/Skp1); E. coli or SF9 (Cul1-Rbx1)
# Description: as §1
# [7] = molecular target: T7, endogenous S37A mutant β-catenin (Homo sapiens, UniProt P35222+Q9Y297, S37A); assay: Degradation of endogenous S37A β-catenin in TOV-112D cells; assay type: cell-based
# T7 construct: host or cells: TOV-112D
# T1 sequence (Q9Y297 1-569 isoform Q9Y297-2, stated change not applied): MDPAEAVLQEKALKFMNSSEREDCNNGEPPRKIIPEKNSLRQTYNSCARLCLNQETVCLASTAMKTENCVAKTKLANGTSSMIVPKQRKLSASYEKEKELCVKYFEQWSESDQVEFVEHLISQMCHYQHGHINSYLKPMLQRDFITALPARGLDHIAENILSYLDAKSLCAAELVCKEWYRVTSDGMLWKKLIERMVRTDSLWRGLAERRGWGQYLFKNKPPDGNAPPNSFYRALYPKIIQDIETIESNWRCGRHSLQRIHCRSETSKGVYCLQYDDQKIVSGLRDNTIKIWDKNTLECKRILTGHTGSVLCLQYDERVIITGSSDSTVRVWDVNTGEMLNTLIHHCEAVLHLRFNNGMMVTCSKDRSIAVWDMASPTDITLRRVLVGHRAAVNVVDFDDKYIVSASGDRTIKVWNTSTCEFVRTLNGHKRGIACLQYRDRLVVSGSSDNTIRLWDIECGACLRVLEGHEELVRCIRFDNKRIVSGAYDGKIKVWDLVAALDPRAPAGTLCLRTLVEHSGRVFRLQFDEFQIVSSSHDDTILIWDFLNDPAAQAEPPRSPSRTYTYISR
# T1 sequence (P63208 whole entry partner): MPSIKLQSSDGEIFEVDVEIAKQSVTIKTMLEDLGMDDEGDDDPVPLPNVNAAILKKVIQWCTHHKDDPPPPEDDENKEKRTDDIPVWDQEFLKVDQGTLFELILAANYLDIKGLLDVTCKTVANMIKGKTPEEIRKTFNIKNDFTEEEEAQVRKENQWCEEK
# T1 sequence (Q13616 whole entry partner): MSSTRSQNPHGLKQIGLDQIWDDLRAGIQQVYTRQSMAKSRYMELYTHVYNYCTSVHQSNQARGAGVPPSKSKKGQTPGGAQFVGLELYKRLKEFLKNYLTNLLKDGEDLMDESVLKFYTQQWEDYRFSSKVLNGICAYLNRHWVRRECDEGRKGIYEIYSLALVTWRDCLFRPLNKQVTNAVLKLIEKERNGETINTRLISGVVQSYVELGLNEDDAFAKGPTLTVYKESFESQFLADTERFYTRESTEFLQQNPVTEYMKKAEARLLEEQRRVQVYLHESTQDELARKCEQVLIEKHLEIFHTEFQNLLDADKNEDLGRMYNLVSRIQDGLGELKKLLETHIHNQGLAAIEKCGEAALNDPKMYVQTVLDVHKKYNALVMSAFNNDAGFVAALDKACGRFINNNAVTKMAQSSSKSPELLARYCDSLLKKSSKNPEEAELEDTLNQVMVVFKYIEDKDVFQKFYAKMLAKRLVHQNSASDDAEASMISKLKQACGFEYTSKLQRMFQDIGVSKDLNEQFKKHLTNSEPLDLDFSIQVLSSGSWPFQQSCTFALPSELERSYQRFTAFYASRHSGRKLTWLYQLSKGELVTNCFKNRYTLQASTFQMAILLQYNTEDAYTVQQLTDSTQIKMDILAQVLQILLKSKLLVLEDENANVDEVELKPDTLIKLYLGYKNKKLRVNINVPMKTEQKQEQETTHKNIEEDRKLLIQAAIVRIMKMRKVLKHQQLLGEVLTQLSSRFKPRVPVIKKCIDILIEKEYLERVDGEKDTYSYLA
# T1 sequence (P62877 whole entry partner): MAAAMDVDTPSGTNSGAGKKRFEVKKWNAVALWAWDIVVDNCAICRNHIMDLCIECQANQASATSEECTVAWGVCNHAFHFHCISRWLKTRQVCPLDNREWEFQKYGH
# T1 sequence (Q15843 1-76 partner limits assumed): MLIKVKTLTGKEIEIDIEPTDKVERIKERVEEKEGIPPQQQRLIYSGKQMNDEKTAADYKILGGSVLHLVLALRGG
# T1 sequence (P35222 whole entry S33E/S37A): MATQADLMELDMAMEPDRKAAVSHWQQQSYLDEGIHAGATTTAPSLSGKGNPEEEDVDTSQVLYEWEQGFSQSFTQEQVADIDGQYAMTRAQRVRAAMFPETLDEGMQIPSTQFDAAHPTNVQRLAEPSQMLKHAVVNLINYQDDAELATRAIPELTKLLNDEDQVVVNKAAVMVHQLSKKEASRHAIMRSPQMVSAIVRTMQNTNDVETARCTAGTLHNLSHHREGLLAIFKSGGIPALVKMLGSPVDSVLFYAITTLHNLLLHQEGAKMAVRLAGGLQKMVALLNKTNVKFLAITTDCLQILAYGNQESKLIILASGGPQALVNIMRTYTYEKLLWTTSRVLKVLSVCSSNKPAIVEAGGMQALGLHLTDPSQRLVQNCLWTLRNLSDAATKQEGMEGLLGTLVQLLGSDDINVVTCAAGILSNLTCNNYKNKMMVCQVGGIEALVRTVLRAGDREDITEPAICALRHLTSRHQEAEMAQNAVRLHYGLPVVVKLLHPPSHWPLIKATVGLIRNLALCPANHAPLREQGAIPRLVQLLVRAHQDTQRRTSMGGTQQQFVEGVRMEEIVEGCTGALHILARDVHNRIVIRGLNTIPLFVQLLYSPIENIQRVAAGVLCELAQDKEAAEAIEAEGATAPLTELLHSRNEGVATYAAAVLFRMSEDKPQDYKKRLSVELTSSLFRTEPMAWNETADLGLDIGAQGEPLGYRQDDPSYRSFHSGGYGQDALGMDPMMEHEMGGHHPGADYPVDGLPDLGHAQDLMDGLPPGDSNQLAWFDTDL
# T5 sequence (Q9Y297 1-569 isoform Q9Y297-2, stated change not applied): as the sequence (Q9Y297 1-569 isoform Q9Y297-2, stated change not applied) above
# T5 sequence (P63208 whole entry partner, the tested form may be a part): as the sequence (P63208 whole entry partner) above
# T5 sequence (P35222 17-48 S37A limits assumed): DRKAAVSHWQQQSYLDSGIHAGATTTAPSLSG
# T3 sequence (Q9Y297 1-569 isoform Q9Y297-2, stated change not applied): as the sequence (Q9Y297 1-569 isoform Q9Y297-2, stated change not applied) above
# T3 sequence (P63208 whole entry partner, the tested form may be a part): as the sequence (P63208 whole entry partner) above
# T3 sequence (P35222 17-48 S33E/S37A limits assumed): as the sequence (P35222 17-48 S37A limits assumed) above, with S17E counted along it
smiles,measurement,setting,value
N#Cc1cccc2c1CN(C(=O)c1c(Sc3c(Cl)cccc3Cl)cc(C(F)(F)F)[nH]c1=O)C2 [NRX-252114],ligand concentration at which ubiquitin chain formation resembles WT β-catenin protein,[1],≥ 10 µM
same,enhancement of ubiquitylation of S33E/S37A β-catenin protein,[1]; varying concentration,markedly enhances
same,S33E/S37A β-catenin:β-TrCP interaction in transfected cells,[2],robust S33E/S37A β-catenin:β-TrCP interaction
same,Kd,[3],6 nM
same,ubiquitylation of unphosphorylated Ser33/S37A β-catenin peptides,[4],potentiates the ubiquitylation
same,cooperativity of peptide binding to β-TrCP,[5],> 1500 fold
same,enhancement of ubiquitylation of pSer33/S37A β-catenin peptide,[6],further enhances
same,degradation of endogenous S37A mutant β-catenin,[7],did not induce degradation
